{
  "source": "patent US4889857A",
  "about": "“Quinolonecarboxylic acid compounds and pharmaceutical use thereof” (Yoshitomi Pharmaceutical Industries, Ltd., priority 1987, dated 1989)",
  "key": {"E. coli KC-14 [1]": {"tested_on": "E. coli KC-14", "experiment": "Protective effect against experimental infection in mice", "type": "in vivo", "settings": "oral, 1 h after i.p. inoculation of 5.75 × 10^4 cells/mouse [488 LD50] with mucin; survival day 7; 95% confidence limit", "procedure": "(§1) Experimental infection was caused by inoculating male mice intraperitoneally with each organism. Each of the test compounds was administered orally to the mice, one hour after the inoculation. The therapeutic effect of each compounds was judged by using a 50% effective dose (ED50) from the survival rate on day 7 after injection by the Probit method as described in Proc. Soc. Exp. Biol. Med., Vol. 57, p.261-264, 1944. The Minimum inhibitory concentrations (MIC) were also measured.\n(§2) (The overnight cultures of test organisms with an asterisk (*) were\n(§3) diluted with 50% mucin and 0.5 ml of each was injected intraperitoneally\n(§4) into mice. A double asterisk (**) means a 95% confidence limit. MRSA mean\n(§5) methycillinresistant Staphylococcus aureus.)"}, "S. pyogenes C-203": {"tested_on": "S. pyogenes C-203", "experiment": "Protective effect against experimental infection in mice", "type": "in vivo", "settings": "oral, 1 h after i.p. inoculation of 4.42 × 10^4 cells/mouse [680 LD50]; survival day 7; 95% confidence limit", "procedure": "as §1, §2, §3, §4, §5"}, "S. pneumoniae Type III": {"tested_on": "S. pneumoniae Type III", "experiment": "Protective effect against experimental infection in mice", "type": "in vivo", "settings": "oral, 1 h after i.p. inoculation of 6.0 × 10^2 cells/mouse [12 LD50]; survival day 7; 95% confidence limit", "procedure": "as §1, §2, §3, §4, §5"}, "S. aureus Smith [2]": {"tested_on": "S. aureus Smith", "experiment": "Protective effect against experimental infection in mice", "type": "in vivo", "settings": "oral, 1 h after i.p. inoculation of 2.13 × 10^6 cells/mouse [792 LD50] with mucin; survival day 7; 95% confidence limit", "procedure": "as §1, §2, §3, §4, §5"}, "S. aureus 109(MRSA)": {"tested_on": "S. aureus 109(MRSA)", "experiment": "Protective effect against experimental infection in mice", "type": "in vivo", "settings": "oral, 1 h after i.p. inoculation of 4.93 × 10^8 cells/mouse [5.7 LD50] with mucin; survival day 7; 95% confidence limit", "procedure": "as §1, §2, §3, §4, §5"}, "[3]": {"tested_on": "Bacillus subtilis PCT 219", "experiment": "Antibacterial activity in vitro (MIC)", "type": "cell-based", "settings": "PCT219", "procedure": "(§6) The antibacterial activities in vitro (minimum inhibitory concentration, MIC, μg/ml) of the test compounds were measured according to the standard method of the Japanese Chemotherapy Society (Chemotherapy, Vol. 23, p.1126, 1974).\n(§7) (Inoculum size: 10^6 cells/ml, Organisms with asterisk (*) were\n(§8) cultivated in a 10% horse bloodadded medium.)"}, "Klebsiella pneumoniae DT": {"tested_on": "Klebsiella pneumoniae DT", "experiment": "Antibacterial activity in vitro (MIC)", "type": "cell-based", "procedure": "as §6, §7, §8"}, "[4]": {"tested_on": "Proteus vulgaris IFO 3988", "experiment": "Antibacterial activity in vitro (MIC)", "type": "cell-based", "settings": "IFO3988", "procedure": "as §6, §7, §8"}, "[5]": {"tested_on": "Staphylococcus epidermidis ATCC 12228", "experiment": "Antibacterial activity in vitro (MIC)", "type": "cell-based", "settings": "ATCC12228", "procedure": "as §6, §7, §8"}, "[6]": {"tested_on": "Acinetobacter calcoaceticus ATCC 13006", "experiment": "Antibacterial activity in vitro (MIC)", "type": "cell-based", "settings": "ATCC13006", "procedure": "as §6, §7, §8"}, "[7]": {"tested_on": "Streptococcus lactis IFO 12546", "experiment": "Antibacterial activity in vitro (MIC)", "type": "cell-based", "settings": "Lactococcus lactis, IFO12546", "procedure": "as §6, §7, §8"}, "[8]": {"tested_on": "Morganella morganii IFO 3168", "experiment": "Antibacterial activity in vitro (MIC)", "type": "cell-based", "settings": "IFO3168", "procedure": "as §6, §7, §8"}, "[9]": {"tested_on": "Pediococcus damnosus IFO 3895", "experiment": "Antibacterial activity in vitro (MIC)", "type": "cell-based", "settings": "IFO3895", "procedure": "as §6, §7, §8"}, "[10]": {"tested_on": "Staphylococcus aureus FDA 209P", "experiment": "Antibacterial activity in vitro (MIC)", "type": "cell-based", "settings": "FDA209P", "procedure": "as §6, §7, §8"}, "[11]": {"tested_on": "Proteus mirabilis IFO 3849", "experiment": "Antibacterial activity in vitro (MIC)", "type": "cell-based", "settings": "IFO3849", "procedure": "as §6, §7, §8"}, "[12]": {"tested_on": "Escherichia coli NIHJ JC-2", "experiment": "Antibacterial activity in vitro (MIC)", "type": "cell-based", "settings": "NIHJJC2", "procedure": "as §6, §7, §8"}, "[13]": {"tested_on": "Pseudomonas putida IFO 12996", "experiment": "Antibacterial activity in vitro (MIC)", "type": "cell-based", "settings": "IFO12996", "procedure": "as §6, §7, §8"}, "[14]": {"tested_on": "Pseudomonas aeruginosa IFO 12582", "experiment": "Antibacterial activity in vitro (MIC)", "type": "cell-based", "settings": "IFO12582", "procedure": "as §6, §7, §8"}, "[15]": {"tested_on": "Corynebacterium diphtheriae Tronto", "experiment": "Antibacterial activity in vitro (MIC)", "type": "cell-based", "procedure": "as §6, §7, §8"}, "[16]": {"tested_on": "Streptococcus sp. IFO 3535", "experiment": "Antibacterial activity in vitro (MIC)", "type": "cell-based", "settings": "IFO3535", "procedure": "as §6, §7, §8"}, "[17]": {"tested_on": "Pseudomonas aeruginosa U-31", "experiment": "Antibacterial activity in vitro (MIC)", "type": "cell-based", "settings": "U31", "procedure": "as §6, §7, §8"}, "Shigella sonnei EW-33": {"tested_on": "Shigella sonnei EW-33", "experiment": "Antibacterial activity in vitro (MIC)", "type": "cell-based", "settings": "EW33, inoculum 10^6 cells/ml", "procedure": "as §6, §7, §8"}, "[18]": {"tested_on": "Staphylococcus aureus 1840", "experiment": "Antibacterial activity in vitro (MIC)", "type": "cell-based", "procedure": "as §6, §7, §8"}, "[19]": {"tested_on": "Streptococcus viridans America", "experiment": "Antibacterial activity in vitro (MIC)", "type": "cell-based", "procedure": "as §6, §7, §8"}, "[20]": {"tested_on": "Shigella typhosa Boxhill-58", "experiment": "Antibacterial activity in vitro (MIC)", "type": "cell-based", "procedure": "as §6, §7, §8"}, "Escherichia coli T-7": {"tested_on": "Escherichia coli T-7", "experiment": "Antibacterial activity in vitro (MIC)", "type": "cell-based", "settings": "T7, inoculum 10^6 cells/ml", "procedure": "as §6, §7, §8"}, "Escherichia coli O-111": {"tested_on": "Escherichia coli O-111", "experiment": "Antibacterial activity in vitro (MIC)", "type": "cell-based", "settings": "O111, inoculum 10^6 cells/ml", "procedure": "as §6, §7, §8"}, "[21]": {"tested_on": "Serratia marcescens IFO 12648", "experiment": "Antibacterial activity in vitro (MIC)", "type": "cell-based", "settings": "IFO12648", "procedure": "as §6, §7, §8"}, "[22]": {"tested_on": "Citrobacter freundii IFO 12681", "experiment": "Antibacterial activity in vitro (MIC)", "type": "cell-based", "settings": "IFO12681, inoculum 10^6 cells/ml", "procedure": "as §6, §7, §8"}, "Shigella flexneri EW-10": {"tested_on": "Shigella flexneri EW-10", "experiment": "Antibacterial activity in vitro (MIC)", "type": "cell-based", "settings": "EW10, inoculum 10^6 cells/ml", "procedure": "as §6, §7, §8"}, "[23]": {"tested_on": "Xanthomonas maltophilia IFO 12690", "experiment": "Antibacterial activity in vitro (MIC)", "type": "cell-based", "settings": "Stenotrophomonas maltophilia, IFO12690; inoculum 10^6 cells/ml", "procedure": "as §6, §7, §8"}, "[24]": {"tested_on": "Staphylococcus aureus FDA 209P*", "experiment": "Antibacterial activity in vitro (MIC), horse blood medium", "type": "cell-based", "settings": "FDA209P", "procedure": "as §6, §7, §8"}, "E. coli KC-14 [25]": {"tested_on": "E. coli KC-14", "experiment": "MIC of the infecting organism (Experiment 2)", "type": "cell-based", "settings": "Escherichia coli, KC14", "procedure": "as §1"}, "S. aureus Smith [26]": {"tested_on": "S. aureus Smith", "experiment": "MIC of the infecting organism (Experiment 2)", "type": "cell-based", "settings": "Staphylococcus aureus", "procedure": "as §1"}},
  "data": [
    {"smiles": "O=C(O)c1cn(C2CC2)c2cc(N3CCNCC3)c(F)cc2c1=O", "note": "[CPFX, 1-cyclopropyl-6-fluoro-1,4-dihydro-7-(1-piperazinyl)-4-oxoquinoline-3-carboxylic acid]", "values": [
      {"measurement": "ED50", "setting": "E. coli KC-14 [1]", "result": "0.011(0.008-0.015) mg/mouse"},
      {"measurement": "ED50", "setting": "S. pyogenes C-203", "result": "> 2", "unit": "mg/mouse"},
      {"measurement": "ED50", "setting": "S. pneumoniae Type III", "result": "> 2", "unit": "mg/mouse"},
      {"measurement": "ED50", "setting": "S. aureus Smith [2]", "result": "0.325(0.232-0.453) mg/mouse"},
      {"measurement": "ED50", "setting": "S. aureus 109(MRSA)", "result": "1.163(0.460-1.660) mg/mouse"},
      {"measurement": "MIC", "setting": "[3]", "result": 0.025, "unit": "µg/mL"},
      {"measurement": "MIC", "setting": "Klebsiella pneumoniae DT", "result": 0.025, "unit": "µg/mL"},
      {"measurement": "MIC", "setting": "[4]", "result": 0.05, "unit": "µg/mL"},
      {"measurement": "MIC", "setting": "[5]", "result": 0.2, "unit": "µg/mL"},
      {"measurement": "MIC", "setting": "[6]", "result": 0.1, "unit": "µg/mL"},
      {"measurement": "MIC", "setting": "[7]", "result": 3.13, "unit": "µg/mL"},
      {"measurement": "MIC", "setting": "[8]", "result": 0.025, "unit": "µg/mL"},
      {"measurement": "MIC", "setting": "[9]", "result": 0.1, "unit": "µg/mL"},
      {"measurement": "MIC", "setting": "[10]", "result": 0.2, "unit": "µg/mL"},
      {"measurement": "MIC", "setting": "[11]", "result": 0.1, "unit": "µg/mL"},
      {"measurement": "MIC", "setting": "[12]", "result": 0.025, "unit": "µg/mL"},
      {"measurement": "MIC", "setting": "[13]", "result": 0.1, "unit": "µg/mL"},
      {"measurement": "MIC", "setting": "[14]", "result": 0.2, "unit": "µg/mL"},
      {"measurement": "MIC", "setting": "[15]", "result": 0.1, "unit": "µg/mL"},
      {"measurement": "MIC", "setting": "[16]", "result": 3.13, "unit": "µg/mL"},
      {"measurement": "MIC", "setting": "[17]", "result": 0.2, "unit": "µg/mL"},
      {"measurement": "MIC", "setting": "Shigella sonnei EW-33", "result": "≤ 0.006", "unit": "µg/mL"},
      {"measurement": "MIC", "setting": "[18]", "result": 3.13, "unit": "µg/mL"},
      {"measurement": "MIC", "setting": "[19]", "result": 3.13, "unit": "µg/mL"},
      {"measurement": "MIC", "setting": "[20]", "result": "≤ 0.006", "unit": "µg/mL"},
      {"measurement": "MIC", "setting": "Escherichia coli T-7", "result": 0.012, "unit": "µg/mL"},
      {"measurement": "MIC", "setting": "Escherichia coli O-111", "result": 0.012, "unit": "µg/mL"},
      {"measurement": "MIC", "setting": "[21]", "result": 0.1, "unit": "µg/mL"},
      {"measurement": "MIC", "setting": "[22]", "result": 0.012, "unit": "µg/mL"},
      {"measurement": "MIC", "setting": "Shigella flexneri EW-10", "result": 0.012, "unit": "µg/mL"},
      {"measurement": "MIC", "setting": "[23]", "result": 0.05, "unit": "µg/mL"},
      {"measurement": "MIC", "setting": "[24]", "result": 0.2, "unit": "µg/mL"},
      {"measurement": "MIC", "setting": "E. coli KC-14 [25]", "result": "≤ 0.006", "unit": "µg/mL"},
      {"measurement": "MIC", "setting": "S. aureus Smith [26]", "result": 0.1, "unit": "µg/mL"}
    ]}
  ]
}
